In patent US12384797B2, “Thioeno[3,2-b] pyridin-7-amine compounds for treating familial dysautonomia” (PTC THERAPEUTICS, INC., priority 2019, dated 2025):

Test system: Elongator complex protein 1 (ELP1, also referred to as IKBKAP)
Experiment: IKBKAP-HTRF assay (IKBKAP protein in lysates of FD patient-derived fibroblasts)
Type: cell-based, human
Details: 48 hours incubation, 7-point concentration curve
How it was run: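 Sandwich HTRF with two labelled anti-IKAP antibodies (overnight, 4 °C) measured IKBKAP in lysates of FD patient fibroblasts. Cells were exposed to compound for 48 h at 37 °C (7-point curve, 3.16-fold steps, triplicates). EC2x is the dose doubling IKBKAP versus DMSO control; MFI is sample ΔF divided by vehicle ΔF.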

SMILES	EC2x for IKBKAP protein expression (concentration producing two times the amount of IKBKAP protein vs DMSO vehicle control)	MFI (maximum fold increase in IKBKAP protein abundance relative to the vehicle control)
Cc1c([C@@H](C)[C@H](C)N)sc2c(NCc3ccco3)cc(Cl)nc12 [Compound 151, 2-[(2S,3S)-3-aminobutan-2-yl]-5-chloro-N-[(furan-2-yl)methyl]-3-methylthieno[3,2-b]pyridin-7-amine]	*** (between >0.02 μM and ≤0.5 μM is indicated by three stars (***))	** (between >1.9 and ≤2.9 is indicated by two stars (**))
Cc1c(CCN)sc2c(NCc3ccco3)cc(Cl)nc12 [Compound 152, 2-(2-aminoethyl)-5-chloro-N-[(furan-2-yl)methyl]-3-methylthieno[3,2-b]pyridin-7-amine]	*** (between >0.02 μM and ≤0.5 μM is indicated by three stars (***))	** (between >1.9 and ≤2.9 is indicated by two stars (**))
C[C@H](N)C(O)c1sc2c(NCc3ccco3)cc(Cl)nc2c1Br (stereo partly drawn) [Compound 153, (2S)-2-amino-1-(3-bromo-5-chloro-7-{[(furan-2-yl)methyl]amino}thieno[3,2-b]pyridin-2-yl)propan-1-ol]	*** (between >0.02 μM and ≤0.5 μM is indicated by three stars (***))	** (between >1.9 and ≤2.9 is indicated by two stars (**))
C[C@H](N)C(F)c1sc2c(NCc3ccco3)cc(Cl)nc2c1Br (stereo partly drawn) [Compound 154, 2-[(2S)-2-amino-1-fluoropropyl]-3-bromo-5-chloro-N-[(furan-2-yl)methyl]thieno[3,2-b]pyridin-7-amine]	***** (≤0.005 μM is indicated by five stars (*****))	**** (between >3.9 and ≤4.9 is indicated by four stars (****))
C[C@H](N)C(O)c1sc2c(NCc3cccs3)cc(Cl)nc2c1Br (stereo partly drawn) [Compound 155, (2S)-2-amino-1-(3-bromo-5-chloro-7-{[(thiophen-2-yl)methyl]amino}thieno[3,2-b]pyridin-2-yl)propan-1-ol]	* (An EC2x>1 μM is indicated by one star (*))	* (An MFI≤1.9 is indicated by one star (*))
C[C@H](N)C(=O)c1sc2c(NCc3cccs3)cc(Cl)nc2c1Br [Compound 156, (2S)-2-amino-1-(3-bromo-5-chloro-7-{[(thiophen-2-yl)methyl]amino}thieno[3,2-b]pyridin-2-yl)propan-1-one]	*** (between >0.02 μM and ≤0.5 μM is indicated by three stars (***))	*** (between >2.9 and ≤3.9 is indicated by three stars (***))
C[C@H](N)C(=O)c1sc2c(NCc3ccco3)cc(Cl)nc2c1Br [Compound 157, (2S)-2-amino-1-(3-bromo-5-chloro-7-{[(furan-2-yl)methyl]amino}thieno[3,2-b]pyridin-2-yl)propan-1-one]	*** (between >0.02 μM and ≤0.5 μM is indicated by three stars (***))	**** (between >3.9 and ≤4.9 is indicated by four stars (****))
C[C@H](N)C(F)c1sc2c(NCc3cccs3)cc(Cl)nc2c1Br (stereo partly drawn) [Compound 158, 2-[(2S)-2-amino-1-fluoropropyl]-3-bromo-5-chloro-N-[(thiophen-2-yl)methyl]thieno[3,2-b]pyridin-7-amine]	***** (≤0.005 μM is indicated by five stars (*****))	***** (>4.9 is indicated by five stars (*****))
C[C@H](N)C(O)c1sc2c(NCc3nccs3)cc(Cl)nc2c1Br (stereo partly drawn) [Compound 159, (2S)-2-amino-1-(3-bromo-5-chloro-7-{[(1,3-thiazol-2-yl)methyl]amino}thieno[3,2-b]pyridin-2-yl)propan-1-ol]	*** (between >0.02 μM and ≤0.5 μM is indicated by three stars (***))	** (between >1.9 and ≤2.9 is indicated by two stars (**))
C[C@H](N)C(=O)c1sc2c(NCc3nccs3)cc(Cl)nc2c1Br [Compound 160, (2S)-2-amino-1-(3-bromo-5-chloro-7-{[(1,3-thiazol-2-yl)methyl]amino}thieno[3,2-b]pyridin-2-yl)propan-1-one]	*** (between >0.02 μM and ≤0.5 μM is indicated by three stars (***))	**** (between >3.9 and ≤4.9 is indicated by four stars (****))
C[C@H](N)C(F)c1sc2c(NCc3nccs3)cc(Cl)nc2c1Br (stereo partly drawn) [Compound 161, 2-[(2S)-2-amino-1-fluoropropyl]-3-bromo-5-chloro-N-[(1,3-thiazol-2-yl)methyl]thieno[3,2-b]pyridin-7-amine]	***** (≤0.005 μM is indicated by five stars (*****))	*** (between >2.9 and ≤3.9 is indicated by three stars (***))
N[C@@H](CO)Cc1cc2nc(Cl)cc(NCc3cccs3)c2s1 [Compound 162, (2R)-2-amino-3-(5-chloro-7-{[(thiophen-2-yl)methyl]amino}thieno[3,2-b]pyridin-2-yl)propan-1-ol]	***** (≤0.005 μM is indicated by five stars (*****))	**** (between >3.9 and ≤4.9 is indicated by four stars (****))
Cc1c(NC[C@H](C)N)sc2c(NCc3cccs3)cc(Cl)nc12 [Compound 163, N^2-[(2S)-2-aminopropyl]-5-chloro-3-methyl-N^7-[(thiophen-2-yl)methyl]thieno[3,2-b]pyridine-2,7-diamine]	*** (between >0.02 μM and ≤0.5 μM is indicated by three stars (***))	**** (between >3.9 and ≤4.9 is indicated by four stars (****))
Cc1c(NC[C@@H](C)N)sc2c(NCc3cccs3)cc(Cl)nc12 [Compound 164, N^2-[(2R)-2-aminopropyl]-5-chloro-3-methyl-N^7-[(thiophen-2-yl)methyl]thieno[3,2-b]pyridine-2,7-diamine]	*** (between >0.02 μM and ≤0.5 μM is indicated by three stars (***))	*** (between >2.9 and ≤3.9 is indicated by three stars (***))
